Key:
[1] = Size and polydispersity index PDI of lipid nanoparticles (Malvern Zetasizer Nano ZS); type: physicochemical; details: LNP ionizable lipid/DOPE/cholesterol/DSPE-PEG2000 35/16/46.5/2.5 mol% encapsulating EGFP mRNA; for Particle Size: in nm (unit assumed)
Procedure: (§1) The ionizable lipid compound of Example 1 was dissolved in ethanol with DOPE, cholesterol and DSPE-PEG2000 (all purchased from AVT (Shanghai) Pharmaceutical Technology Co., Ltd.) at a molar ratio of 35:16:46.5:2.5 to prepare ethanol lipid solution, and enhanced green fluorescent protein (EGFP) mRNAs (Shanghai Maximna Pharmaceutical Engineering Co., Ltd., JN-4201) were diluted in 20 mM citrate buffer (pH=6.1) to obtain mRNA aqueous solution. Ethanol lipid solution and mRNA aqueous solution were mixed at a volume ratio of 1:3 by using a microfluidic device (Micro&Nano (Shanghai) Instrument Technology Co., Ltd., model: INano™ML), LNPs were prepared with a weight ratio of approximately 10:1 between total lipids and mRNAs. The medium was replaced by ultrafiltration, ethanol was removed and volumed with DPBS. Finally, the lipid nanoparticles were filtered through a 0.2 μm sterile filter to obtain a LNP formulation encapsulating eGFP mRNA using ionizable lipid/DOPE/cholesterol/DSPE-PEG2000 (35/16/46.5/2.5 mol %), the concentration of mRNAs being 0.002 mg/mL-0.5 mg/mL.
Using Malvern Zetasizer Nano ZS (Malvern UK), the size and polydispersity index PDI of lipid nanoparticles were measured at […].

[2] = tested on: PBMC cells; experiment: In vitro transfection of PBMC cells with EGFP mRNA LNP preparation (flow cytometry); type: cell-based; set-up: Cell Viability: concentration or dose not given beside the values; details: for Cell Viability / Positive Rate (EGFP): LNP preparation added with ApoE4; for Fluorescence Intensity: with ApoE4, EGFP mRNA expression level normalized based on the sample with the highest fluorescence intensity
From the text: The description is based on peripheral blood mononuclear cells PBMC (Shanghai Oribiotech Co., Ltd.), human peripheral blood leukemia T cell Jurkat (ATCC), tumor infiltrating lymphocyte TIL (isolated from resected tumor tissue of a liver cancer patient, the preparation method refers to CN114763530A), mouse bone marrow-derived dendritic cells DC2.4 (Cell Bank of the Chinese Academy of Sciences), and Chinese hamster ovary cells CHO (ATCC) were used as verified cell lines for liposome transfection. PBMC, Jurkat, and TIL cells grew in suspension, while DC2.4 and CHO cells grew by adherent culture. All the operation steps of cell culture must strictly abide by the prescribed procedures, and sterile reagents is used to perform aseptic operations under a sterile workbench. The main steps are as follows: • 1) Cell recovery: the preserved cell cryopreservation solution was taken out of the −80° C. refrigerator, and was immediately put in a 37° C. water bath for rapid and continuous shaking, and was completely melted within one minute. Fresh medium was added to the 15 mL centrifuge tube in advance, and the cell solution was added to the centrifuge tube in a biological safety cabinet. A centrifuge tube of the same quality was taken and placed symmetrically in a centrifuge, centrifuged at a low speed at 1200 rpm for 5 min. After centrifugation, the supernatant was removed, and an appropriate amount of medium was slowly added along the tube wall. After the cells were evenly dispersed by blowing gently, the cell suspension was pipette and added to the culture bottle prepared in advance. The state and distribution of the cells in the early stage of recovery were observed under a microscope. The culture bottle was placed in a 5% CO2 incubator and incubated at 37° C., and the recovery time was recorded. • 2) Cell subculture: Under the microscope, if the cell density in the field of view reaches 80%-90%, the cells can be subcultured. Adherent cells need to be digested with trypsin. In order to avoid the residual serum in the culture medium to reduce the activity of trypsin, DPBS solution was added to wash once after removing the original culture medium. After remove the DPBS solution, trypsin was added to degrade the protein at the junction between cells. This separates the cells for further culture. The cells were gently shaked evenly and put into the incubator for digestion for 2 min. Immediately after the digestion was completed, an appropriate amount of medium was added to the original petri dish to terminate the digestion. Finally, the cells were carefully blowed off using a pipette and blowed until they are evenly dispersed, and then inoculated and subcultured at a certain ratio according to the experimental requirements.
• 1) Coating antibodies: 6-well plates were pre-coated, CD3 and CD28 antibodies were taken out from the −20° C. refrigerator, and melted for later use. The above two antibodies were added into the DPBS solution at a concentration of 5 µg/mL, mixed well, added into a six-well plate at 1 mL/well, put in a 37° C. incubator, and waited 4 hours for later use. • 2) PBMC recovery: the frozen PBMC cells were taken out from the −80° C. refrigerator, put in a 37° C. water bath to quickly thaw the cells, added to the preheated medium after thawing, centrifuged at 1200 rpm for 5 min, the supernatant was discarded, and an appropriate amount of AIMN-V medium with 500 U/ml IL-2 was added to resuspend PBMC. • 3) the DPBS coated with the antibody was removed with a pipette, the cell suspension was transferred to a six-well plate pre-coated with the antibody at 4 mL per well, placed in a 5% CO2 incubator at 37° C. for 3-5 days for activation and culture. • 4) According to the experimental arrangement, PBMC cells were plated on a 24-well plate 30 minutes in advance on the day of cell transfection. […]

[3] = Entrapment efficiency of LNP preparation encapsulating EGFP mRNA; type: physicochemical; details: LNP ionizable lipid/DOPE/cholesterol/DSPE-PEG2000 35/16/46.5/2.5 mol% encapsulating EGFP mRNA
Procedure: as §1, with “mg/mL. […]” for “mg/mL.”

SMILES | PDI [1] | Particle Size [1] | Entrapment Efficiency [3] | Cell Viability ([2]; PBMCs) | Positive Rate (EGFP) ([2]; PBMCs) | Fluorescence Intensity ([2]; PBMCs) | transfection efficiency (FIG. 2) ([2]; PBMC, in the absence of AopE4) | transfection efficiency (FIG. 3) ([2]; PBMC, with ApoE4) | change of transfection efficiency with ApoE4 (FIG. 3) ([2]; PBMC, with ApoE4 versus without) | cell viability by flow cytometry (FIG. 1) ([2]; PBMCs, after in vitro transfection, ApoE4 did not affect viability)
CCCCCCCCCCC(O)CN(CCN1CCN(CCN(CCN(CC(O)CCCCCCCCCC)CC(O)CCCCCCCCCC)CCN(CC(O)CCCCCCCCCC)CC(O)CCCCCCCCCC)CC1)CC(O)CCCCCCCCCC (stereo not shown) [A-C12] | 0.173 | 91.6 | 89.80% | 89.70% | 73.30% | 0.72 | – | – | – | –
CCCCCCCCCCCCC(O)CN(CCN1CCN(CCN(CCN(CC(O)CCCCCCCCCCCC)CC(O)CCCCCCCCCCCC)CCN(CC(O)CCCCCCCCCCCC)CC(O)CCCCCCCCCCCC)CC1)CC(O)CCCCCCCCCCCC (stereo not shown) [A-C14] | 0.107 | 97.1 | 80.31% | 91.20% | 72.30% | 0.76 | – | – | – | –
CCCCCCCCCCC(O)CN(CCOCCN(CCOCCN(CC(O)CCCCCCCCCC)CC(O)CCCCCCCCCC)CCN1CCN(CCOCCN(CC(O)CCCCCCCCCC)CC(O)CCCCCCCCCC)CC1)CC(O)CCCCCCCCCC (stereo not shown) [B-C12, 19-(2-(4-(2-(2-(di(2-hydroxydodecyl)amino)ethoxy)ethyl)piperazin-1-yl)ethyl)-13, 15-bis(2-hydroxydodecyl)-16,22-dioxa-13,19,25-triazaheptakadecane-11,27-diol] | 0.147 | 102.9 | 89.93% | 85.00% | 83.00% | 0.81 | – | – | – | –
CCCCCCCCCCC(O)CN(CCOCCOCCN(CCOCCOCCN(CC(O)CCCCCCCCCC)CC(O)CCCCCCCCCC)CCN1CCN(CCOCCOCCN(CC(O)CCCCCCCCCC)CC(O)CCCCCCCCCC)CC1)CC(O)CCCCCCCCCC (stereo not shown) [C-C12] | 0.070 | 92.5 | 95.24% | 89.30% | 56.50% | 0.41 | – | – | – | –
CCCCCCCCCCCCC(O)CN(CCN(CCN1CCN(C)CC1)CCN(CC(O)CCCCCCCCCCCC)CC(O)CCCCCCCCCCCC)CC(O)CCCCCCCCCCCC (stereo not shown) [E-C14] | 0.119 | 85.2 | 85.62% | 86.50% | 64.60% | 0.12 | – | – | – | –

Continued, in another order:

PDI [1] | Particle Size [1] | Entrapment Efficiency [3] | SMILES | Cell Viability ([2]; PBMCs) | Positive Rate (EGFP) ([2]; PBMCs) | Fluorescence Intensity ([2]; PBMCs) | transfection efficiency (FIG. 2) ([2]; PBMC, in the absence of AopE4) | transfection efficiency (FIG. 3) ([2]; PBMC, with ApoE4) | change of transfection efficiency with ApoE4 (FIG. 3) ([2]; PBMC, with ApoE4 versus without) | cell viability by flow cytometry (FIG. 1) ([2]; PBMCs, after in vitro transfection, ApoE4 did not affect viability)
0.183 | 90.8 | 90.30% | CCCCCCCCCCCCCCC(O)CN(CCN1CCN(CCN(CCN(CC(O)CCCCCCCCCCCCCC)CC(O)CCCCCCCCCCCCCC)CCN(CC(O)CCCCCCCCCCCCCC)CC(O)CCCCCCCCCCCCCC)CC1)CC(O)CCCCCCCCCCCCCC (stereo not shown) [A-C16] | 90.00% | 76.30% | 0.81 | – | – | – | –
0.144 | 96.9 | 90.56% | CCCCCCCCCCCCCCCCC(O)CN(CCN1CCN(CCN(CCN(CC(O)CCCCCCCCCCCCCCCC)CC(O)CCCCCCCCCCCCCCCC)CCN(CC(O)CCCCCCCCCCCCCCCC)CC(O)CCCCCCCCCCCCCCCC)CC1)CC(O)CCCCCCCCCCCCCCCC (stereo not shown) [A-C18] | 85.00% | 81.90% | 0.87 | – | – | – | –
0.133 | 90.5 | 95.21% | CCCCCCCCCCCCC(O)CN(CCOCCN(CCOCCN(CC(O)CCCCCCCCCCCC)CC(O)CCCCCCCCCCCC)CCN1CCN(CCOCCN(CC(O)CCCCCCCCCCCC)CC(O)CCCCCCCCCCCC)CC1)CC(O)CCCCCCCCCCCC (stereo not shown) [B-C14] | 90.00% | 85.50% | 1 | low transfection efficiency | over 75% | increased | high viability
0.073 | 90.5 | 91.80% | CCCCCCCCCCC(O)CN(CCOCCOCCOCCN(CCOCCOCCOCCN(CC(O)CCCCCCCCCC)CC(O)CCCCCCCCCC)CCN1CCN(CCOCCOCCOCCN(CC(O)CCCCCCCCCC)CC(O)CCCCCCCCCC)CC1)CC(O)CCCCCCCCCC [D-C12] | 85.60% | 65.60% | 0.27 | – | – | – | –
0.168 | 97.2 | 92.36% | CCCCCCCCCCCCC(O)CN(CCOCCOCCOCCN(CCOCCOCCOCCN(CC(O)CCCCCCCCCCCC)CC(O)CCCCCCCCCCCC)CCN1CCN(CCOCCOCCOCCN(CC(O)CCCCCCCCCCCC)CC(O)CCCCCCCCCCCC)CC1)CC(O)CCCCCCCCCCCC [D-C14] | 88.70% | 96.70% | 0.25 | – | – | – | –
0.117 | 91.6 | 86.56% | CCCCCCCCCCCCCCC(O)CN(CCOCCOCCOCCN(CCOCCOCCOCCN(CC(O)CCCCCCCCCCCCCC)CC(O)CCCCCCCCCCCCCC)CCN1CCN(CCOCCOCCOCCN(CC(O)CCCCCCCCCCCCCC)CC(O)CCCCCCCCCCCCCC)CC1)CC(O)CCCCCCCCCCCCCC [D-C16] | 82.20% | 71.70% | 0.32 | – | – | – | –
0.105 | 103.0 | 88.54% | CCCCCCCCCCCCCCCCC(O)CC(CCOCCOCCOCCN(CCOCCOCCOCCN(CC(O)CCCCCCCCCCCCCCCC)CC(O)CCCCCCCCCCCCCCCC)CCN1CCN(CCOCCOCCOCCN(CC(O)CCCCCCCCCCCCCCCC)CC(O)CCCCCCCCCCCCCCCC)CC1)CC(O)CCCCCCCCCCCCCCCC [D-C18] | 83.30% | 64.40% | 0.41 | – | – | – | –
